# Assay results taken from patent publication US20190091162A1, “POLYMER-LIPID HYBRID NANOPARTICLES OF CAPECITABINE UTILIZING MICROMIXING AND CAPECITABINE AMPHIPHILIC PROPERTIES” (Jingjie PTM BioLab (Hangzhou) Co., Ltd., priority 2017, published 2019).
# Legend:
# [1] = unformulated CAP; cited from earlier work
# [2] = Particle size by dynamic light scattering (DLS)
compound,measurement,setting,value
"CCCCCOC(=O)Nc1nc(=O)n([C@@H]2O[C@H](C)[C@@H](O)[C@H]2O)cc1F [CAP, N4-pentyloxycarbonyl-5-deoxy-5-fluoro-cytidine]",Time within which the drug by itself is eliminated from the body,[1],0.5 to 1 h
same,Size of the particles formed by CAP,"[2]; CAP in DI water, DLS",2-30 nm
same,Stability of CAP micelles,"[2]; high concentrations of CAP in DI water, size and correlation function fluctuate",not very stable
